Data: PubChem BioAssay AID248 (DTP/NCI, 2004)
“And” between values parts separate entries of the source, which are not always exact repeats. Equal entries are not always repeated. Toxic doses and inconclusive results are not listed. Rule as the data show it: active = T/C of 150% or more; inactive = T/C below 125%.

System: L1210 leukemia ip in BDF1 mice, survival T/C
Assay: NCI In Vivo Anticancer Drug Screen. Data for tumor model L1210 Leukemia (intraperitoneal) in B6D2F1 (BDF1) mice
Conditions: endpoint: mean survival time, higher = longer survival
In short: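 Ratio derived from survival: compound-dosed mice over vehicle-dosed mice, all bearing a transplantable tumor.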

[1] = dose: 200.0 mg/kg/injection, schedule: Q01DX001 (ip), vehicle: saline

Measured: T/C

O=C(Nc1ccc(C2=NCCCN2)cc1)c1ccc(C(=O)Nc2ccc(C3=NCCCN3)cc2)cc1
109 % of control and 211 % of control: dose: 1.9 mg/kg/injection, schedule: Q01DX Z (ip), vehicle: carboxymethylcellulose (CMC)
active: dose: 1.0 mg/kg/injection, schedule: Q01DX010 (ip), vehicle: other 160 % of control | dose: 2.0 mg/kg/injection, schedule: Q01DX010 (ip), vehicle: other 174 % of control and 235 % of control | dose: 2.0 mg/kg/injection, schedule: Q01DX010 (ip), vehicle: saline 155 % of control | dose: 2.0 mg/kg/injection, schedule: Q01DX010 (iv), vehicle: other 180 % of control | dose: 2.8 mg/kg/injection, schedule: Q01DX Z (ip), vehicle: carboxymethylcellulose (CMC) 277 % of control | dose: 4.0 mg/kg/injection, schedule: Q01DX010 (ip), vehicle: other 205 % of control and 217 % of control and 265 % of control | dose: 4.0 mg/kg/injection, schedule: Q01DX010 (ip), vehicle: saline 208 % of control and 235 % of control | dose: 4.0 mg/kg/injection, schedule: Q01DX010 (iv), vehicle: other 237 % of control | dose: 4.0 mg/kg/injection, schedule: Q01DX010 (iv), vehicle: saline 203 % of control | dose: 4.0 mg/kg/injection, schedule: Q01DX Z (iv), vehicle: other 202 % of control | dose: 4.0 mg/kg/injection, schedule: Q01DX Z (iv), vehicle: saline 238 % of control | dose: 4.2 mg/kg/injection, schedule: Q01DX Z (ip), vehicle: carboxymethylcellulose (CMC) 280 % of control | dose: 6.3 mg/kg/injection, schedule: Q01DX Z (ip), vehicle: carboxymethylcellulose (CMC) 209 % of control and 229 % of control | dose: 8.0 mg/kg/injection, schedule: Q01DX010 (ip), vehicle: saline 229 % of control and 338 % of control | dose: 8.0 mg/kg/injection, schedule: Q01DX010 (iv), vehicle: saline 161 % of control | dose: 8.0 mg/kg/injection, schedule: Q01DX Z (iv), vehicle: saline 182 % of control | dose: 9.4 mg/kg/injection, schedule: Q01DX Z (ip), vehicle: carboxymethylcellulose (CMC) 211 % of control | dose: 200.0 mg/kg/injection, schedule: Q#A X Z (oral), vehicle: saline 161 % of control | dose: 250.0 mg/kg/injection, schedule: Q01DX010 (oral), vehicle: other 183 % of control | dose: 333.0 mg/kg/injection, schedule: Q## X010 (oral), vehicle: saline 153 % of control | dose: 400.0 mg/kg/injection, schedule: Q01DX Z (oral), vehicle: saline 158 % of control | dose: 500.0 mg/kg/injection, schedule: Q01DX010 (oral), vehicle: other 181 % of control | dose: 600.0 mg/kg/injection, schedule: Q01DX Z (oral), vehicle: saline 151 % of control and 163 % of control
inactive: dose: 0.5 mg/kg/injection, schedule: Q01DX Z (ip), vehicle: carboxymethylcellulose (CMC) 95 % of control | dose: 0.5 mg/kg/injection, schedule: Q01DX Z (iv), vehicle: saline 100 % of control | dose: 0.8 mg/kg/injection, schedule: Q01DX Z (ip), vehicle: carboxymethylcellulose (CMC) 101 % of control | dose: 1.0 mg/kg/injection, schedule: Q01DX010 (iv), vehicle: other 103 % of control | dose: 1.0 mg/kg/injection, schedule: Q01DX Z (iv), vehicle: saline 107 % of control | dose: 1.2 mg/kg/injection, schedule: Q01DX Z (ip), vehicle: carboxymethylcellulose (CMC) 103 % of control | dose: 2.0 mg/kg/injection, schedule: Q01DX Z (iv), vehicle: saline 111 % of control | dose: 8.0 mg/kg/injection, schedule: Q01DX010 (ip), vehicle: other 97 % of control and 115 % of control | dose: 16.0 mg/kg/injection, schedule: Q01DX010 (ip), vehicle: other 103 % of control and 89 % of control | dose: 16.0 mg/kg/injection, schedule: Q01DX010 (iv), vehicle: saline 117 % of control | dose: 16.0 mg/kg/injection, schedule: Q01DX010 (sc), vehicle: olive oil, sesame oil, peanut oil 113 % of control | dose: 21.3 mg/kg/injection, schedule: Q01DX Z (ip), vehicle: carboxymethylcellulose (CMC) 119 % of control | dose: 22.0 mg/kg/injection, schedule: Q01DX010 (sc), vehicle: olive oil, sesame oil, peanut oil 101 % of control | dose: 30.0 mg/kg/injection, schedule: Q01DX Z (oral), vehicle: carboxymethylcellulose (CMC) 95 % of control | dose: 31.3 mg/kg/injection, schedule: Q01DX010 (sc), vehicle: olive oil, sesame oil, peanut oil 119 % of control and 89 % of control | dose: 31.3 mg/kg/injection, schedule: Q02DX004 (im), vehicle: olive oil, sesame oil, peanut oil 116 % of control and 124 % of control | dose: 32.0 mg/kg/injection, schedule: Q01DX Z (ip), vehicle: carboxymethylcellulose (CMC) 123 % of control | dose: 44.0 mg/kg/injection, schedule: Q01DX Z (sc), vehicle: saline 109 % of control | dose: 48.0 mg/kg/injection, schedule: Q01DX Z (ip), vehicle: carboxymethylcellulose (CMC) 94 % of control | dose: 60.0 mg/kg/injection, schedule: Q01DX Z (oral), vehicle: carboxymethylcellulose (CMC) 91 % of control | dose: 62.5 mg/kg/injection, schedule: Q01DX001 (im), vehicle: steriod suspending solution 106 % of control | dose: 62.5 mg/kg/injection, schedule: Q01DX010 (oral), vehicle: other 111 % of control | dose: 62.5 mg/kg/injection, schedule: Q02DX004 (im), vehicle: olive oil, sesame oil, peanut oil 100 % of control and 107 % of control | dose: 66.0 mg/kg/injection, schedule: Q01DX Z (sc), vehicle: saline 102 % of control | dose: 72.0 mg/kg/injection, schedule: Q01DX Z (ip), vehicle: carboxymethylcellulose (CMC) 100 % of control | dose: 88.5 mg/kg/injection, schedule: Q#A X Z (oral), vehicle: saline 115 % of control | dose: 100.0 mg/kg/injection, schedule: Q01DX Z (sc), vehicle: saline 105 % of control | dose: 120.0 mg/kg/injection, schedule: Q01DX Z (oral), vehicle: carboxymethylcellulose (CMC) 91 % of control | dose: 125.0 mg/kg/injection, schedule: Q01DX001 (im), vehicle: steriod suspending solution 108 % of control | dose: 125.0 mg/kg/injection, schedule: Q02DX004 (im), vehicle: olive oil, sesame oil, peanut oil 98 % of control and 105 % of control | dose: 150.0 mg/kg/injection, schedule: Q01DX Z (sc), vehicle: saline 98 % of control and 103 % of control | dose: 177.0 mg/kg/injection, schedule: Q01DX Z (oral), vehicle: saline 109 % of control | dose: 250.0 mg/kg/injection, schedule: Q01DX001 (im), vehicle: steriod suspending solution 93 % of control | dose: 250.0 mg/kg/injection, schedule: Q02DX004 (im), vehicle: olive oil, sesame oil, peanut oil 100 % of control and 104 % of control | dose: 300.0 mg/kg/injection, schedule: Q01DX Z (sc), vehicle: saline 105 % of control | dose: 500.0 mg/kg/injection, schedule: Q## X010 (oral), vehicle: saline 121 % of control | dose: 531.0 mg/kg/injection, schedule: Q03DX Z (oral), vehicle: saline 105 % of control | dose: 798.0 mg/kg/injection, schedule: Q03DX Z (oral), vehicle: saline 107 % of control | dose: 900.0 mg/kg/injection, schedule: Q01DX Z (oral), vehicle: saline 124 % of control | dose: 1200.0 mg/kg/injection, schedule: Q03DX Z (oral), vehicle: saline 98 % of control | dose: 1239.0 mg/kg/injection, schedule: Q07DX Z (oral), vehicle: saline 102 % of control | dose: 1800.0 mg/kg/injection, schedule: Q03DX Z (oral), vehicle: saline 111 % of control | dose: 1862.0 mg/kg/injection, schedule: Q07DX Z (oral), vehicle: saline 105 % of control | dose: 2700.0 mg/kg/injection, schedule: Q03DX Z (oral), vehicle: saline 121 % of control | dose: 2800.0 mg/kg/injection, schedule: Q07DX Z (oral), vehicle: saline 101 % of control | dose: 4200.0 mg/kg/injection, schedule: Q07DX Z (oral), vehicle: saline 105 % of control

COc1cc([N+](=O)[O-])c2nc(/C=N/NC(N)=S)ccc2c1[N+](=O)[O-]
inactive: [1] 86 % of control

CC(=O)CC(C)=Nc1ccc([N+](=O)[O-])cc1
inactive: dose: 100.0 mg/kg/injection, schedule: Q04DX003 (ip), vehicle: saline with Tween-80 101 % of control | dose: 200.0 mg/kg/injection, schedule: Q04DX003 (ip), vehicle: saline with Tween-80 103 % of control | dose: 400.0 mg/kg/injection, schedule: Q04DX003 (ip), vehicle: saline with Tween-80 89 % of control

CCCC/C=C/CCl
inactive: dose: 100.0 mg/kg/injection, schedule: Q01DX001 (ip), vehicle: saline 88 % of control | dose: 100.0 mg/kg/injection, schedule: Q04DX003 (ip), vehicle: saline 102 % of control | [1] 91 % of control | dose: 200.0 mg/kg/injection, schedule: Q04DX003 (ip), vehicle: saline 95 % of control | dose: 400.0 mg/kg/injection, schedule: Q01DX001 (ip), vehicle: saline 90 % of control | dose: 400.0 mg/kg/injection, schedule: Q04DX003 (ip), vehicle: saline 98 % of control
